How the values were obtained:
Format in all cases: in vivo
Conditions in all cases: treatment dosage 320 g/ha
[1] = system: wheat; assay: Test Example 3: soil treatment, effect on crop; e: wheat
Summary of the method: (§1)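 Crop and weed responses were judged three weeks after a uniform surface spray of the water-diluted emulsion at the given g/ha rate. Seeds sat beneath about 1.5 cm of sterilized diluvial soil, and boxes stood in a greenhouse at 25 to 30° C.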

[2] = system: barnyard grass; assay: Test Example 3: weedkilling efficacy through soil treatment; F: barnyard grass
Summary of the method: as §1

[3] = system: Italian ryegrass; assay: Test Example 4: weedkilling efficacy by foliar treatment; I: Italian ryegrass
Summary of the method: (§2)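 Seeds are spot-sown into sterilized diluvial soil and covered with about 1.5 cm of soil. After 14 days' greenhouse growth at 25 to 30° C, plants are sprayed on stems and leaves with diluted emulsion at the stated g/ha rate, then scored at 3 weeks.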

[4] = system: chickweed; assay: Test Example 3: weedkilling efficacy through soil treatment; N: chickweed
Summary of the method: as §1

[5] = system: directly sown rice; assay: Test Example 4: foliar treatment, effect on crop; b: directly sown rice
Summary of the method: as §2

[6] = system: redroot pigweed; assay: Test Example 4: weedkilling efficacy by foliar treatment; L: redroot pigweed
Summary of the method: as §2

[7] = system: birds-eye speedwell; assay: Test Example 3: weedkilling efficacy through soil treatment; p: birds-eye speedwell
Summary of the method: as §1

[8] = system: corn; assay: Test Example 4: foliar treatment, effect on crop; c: corn
Summary of the method: as §2

[9] = system: bulrush; assay: Test Example 2: weedkilling efficacy, growth period weed treatment in the submerged state; B: bulrush
Summary of the method: (§3)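 Barnyard grass, bulrush and oval-leafed pondweed sown in alluvial soil under 4 cm flooding, greenhouse 25 to 30° C. At 1-2 leaf stage, water-diluted emulsion applied to the water surface at stated g/ha dosages; effects scored 3 weeks later.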

[10] = system: green foxtail; assay: Test Example 4: weedkilling efficacy by foliar treatment; E: green foxtail
Summary of the method: as §2

[11] = system: common wind-grass; assay: Test Example 4: weedkilling efficacy by foliar treatment; J: common wind-grass
Summary of the method: as §2

[12] = system: beet; assay: Test Example 3: soil treatment, effect on crop; f: beet
Summary of the method: as §1

[13] = system: oval-leafed pondweed; assay: Test Example 1: weedkilling efficacy, preemergent weed treatment in the submerged state; C: oval-leafed pondweed
Summary of the method: (§4)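 Visual scores against set criteria were taken 3 weeks after treatment. Compounds, as diluted emulsions at specified g/ha, went onto the water surface of 4 cm-flooded alluvial soil pots on the day weeds were sown and 2.5-leaf rice was transplanted; greenhouse held 25–30 °C.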

[14] = system: beet; assay: Test Example 4: foliar treatment, effect on crop; f: beet
Summary of the method: as §2

[15] = system: barnyard grass; assay: Test Example 1: weedkilling efficacy, preemergent weed treatment in the submerged state; A: barnyard grass
Summary of the method: as §4

[16] = system: chickweed; assay: Test Example 4: weedkilling efficacy by foliar treatment; N: chickweed
Summary of the method: as §2

[17] = system: crabgrass; assay: Test Example 4: weedkilling efficacy by foliar treatment; D: crabgrass
Summary of the method: as §2

[18] = system: rapeseed; assay: Test Example 3: soil treatment, effect on crop; g: rapeseed
Summary of the method: as §1

[19] = system: fig-leafed goosefoot; assay: Test Example 4: weedkilling efficacy by foliar treatment; M: fig-leafed goosefoot
Summary of the method: as §2

[20] = system: Indian mallow; assay: Test Example 4: weedkilling efficacy by foliar treatment; K: Indian mallow
Summary of the method: as §2

[21] = system: redroot pigweed; assay: Test Example 3: weedkilling efficacy through soil treatment; L: redroot pigweed
Summary of the method: as §1

[22] = system: directly sown rice; assay: Test Example 3: soil treatment, effect on crop; b: directly sown rice
Summary of the method: as §1

[23] = system: wheat; assay: Test Example 4: foliar treatment, effect on crop; e: wheat
Summary of the method: as §2

[24] = system: common wind-grass; assay: Test Example 3: weedkilling efficacy through soil treatment; J: common wind-grass
Summary of the method: as §1

[25] = system: crabgrass; assay: Test Example 3: weedkilling efficacy through soil treatment; D: crabgrass
Summary of the method: as §1

[26] = system: green foxtail; assay: Test Example 3: weedkilling efficacy through soil treatment; E: green foxtail
Summary of the method: as §1

[27] = system: fig-leafed goosefoot; assay: Test Example 3: weedkilling efficacy through soil treatment; M: fig-leafed goosefoot
Summary of the method: as §1

[28] = system: rapeseed; assay: Test Example 4: foliar treatment, effect on crop; g: rapeseed
Summary of the method: as §2

[29] = system: bulrush; assay: Test Example 1: weedkilling efficacy, preemergent weed treatment in the submerged state; B: bulrush
Summary of the method: as §4

[30] = system: Indian mallow; assay: Test Example 3: weedkilling efficacy through soil treatment; K: Indian mallow
Summary of the method: as §1

[31] = system: wild oat; assay: Test Example 4: weedkilling efficacy by foliar treatment; G: wild oat
Summary of the method: as §2

[32] = system: black-grass; assay: Test Example 3: weedkilling efficacy through soil treatment; H: black-grass
Summary of the method: as §1

[33] = system: catchweed; assay: Test Example 3: weedkilling efficacy through soil treatment; O: catchweed
Summary of the method: as §1

[34] = system: barnyard grass; assay: Test Example 4: weedkilling efficacy by foliar treatment; F: barnyard grass
Summary of the method: as §2

[35] = system: soybean; assay: Test Example 3: soil treatment, effect on crop; d: soybean
Summary of the method: as §1

[36] = system: transplanted rice; assay: Test Example 1: preemergent weed treatment in the submerged state, effect on crop; a: transplanted rice
Summary of the method: as §4

[37] = system: barnyard grass; assay: Test Example 2: weedkilling efficacy, growth period weed treatment in the submerged state; A: barnyard grass
Summary of the method: as §3

[38] = system: soybean; assay: Test Example 4: foliar treatment, effect on crop; d: soybean
Summary of the method: as §2

[39] = system: black-grass; assay: Test Example 4: weedkilling efficacy by foliar treatment; H: black-grass
Summary of the method: as §2

[40] = system: Italian ryegrass; assay: Test Example 3: weedkilling efficacy through soil treatment; I: Italian ryegrass
Summary of the method: as §1

[41] = system: catchweed; assay: Test Example 4: weedkilling efficacy by foliar treatment; O: catchweed
Summary of the method: as §2

[42] = system: wild oat; assay: Test Example 3: weedkilling efficacy through soil treatment; G: wild oat
Summary of the method: as §1

[43] = system: corn; assay: Test Example 3: soil treatment, effect on crop; c: corn
Summary of the method: as §1

[44] = system: birds-eye speedwell; assay: Test Example 4: weedkilling efficacy by foliar treatment; p: birds-eye speedwell
Summary of the method: as §2

[45] = system: oval-leafed pondweed; assay: Test Example 2: weedkilling efficacy, growth period weed treatment in the submerged state; C: oval-leafed pondweed
Summary of the method: as §3

## COc1cc(C(F)(F)F)cc(NC(=O)C(C)(C)N2COC(C)=C(c3cccnc3F)C2=O)n1 [B-2-14]
[1]
  e (wheat) effect on crop grade: 0 (weed kill ratio 5% or less (practically no effect))
[2]
  F (barnyard grass) weedkilling efficacy grade: 5 (weed kill ratio 90% or more, (practically complete withering))
[3]
  I (Italian ryegrass) weedkilling efficacy grade: 5 (weed kill ratio 90% or more, (practically complete withering))
[4]
  N (chickweed) weedkilling efficacy grade: 3 (weed kill ratio 40% or more, less than 70%)
[5]
  b (directly sown rice) effect on crop grade: 3 (weed kill ratio 40% or more, less than 70%)
[6]
  L (redroot pigweed) weedkilling efficacy grade: 4 (weed kill ratio 70% or more, less than 90%)
[7]
  P (birds-eye speedwell) weedkilling efficacy grade: 4 (weed kill ratio 70% or more, less than 90%)
[8]
  c (corn) effect on crop grade: 3 (weed kill ratio 40% or more, less than 70%)
[9]
  B (bulrush) weedkilling efficacy grade: 4 (weed kill ratio 70% or more, less than 90%)
[10]
  E (green foxtail) weedkilling efficacy grade: 5 (weed kill ratio 90% or more, (practically complete withering))
[11]
  J (common wind-grass) weedkilling efficacy grade: 5 (weed kill ratio 90% or more, (practically complete withering))
[12]
  f (beet) effect on crop grade: 3 (weed kill ratio 40% or more, less than 70%)
[13]
  C (oval-leafed pondweed) weedkilling efficacy grade: 4 (weed kill ratio 70% or more, less than 90%)
[14]
  f (beet) effect on crop grade: 3 (weed kill ratio 40% or more, less than 70%)
[15]
  A (barnyard grass) weedkilling efficacy grade: 5 (weed kill ratio 90% or more, (practically complete withering))
[16]
  N (chickweed) weedkilling efficacy grade: 4 (weed kill ratio 70% or more, less than 90%)
[17]
  D (crabgrass) weedkilling efficacy grade: 4 (weed kill ratio 70% or more, less than 90%)
[18]
  g (rapeseed) effect on crop grade: 1 (weed kill ratio 5% or more, less than 20%)
[19]
  M (fig-leafed goosefoot) weedkilling efficacy grade: 4 (weed kill ratio 70% or more, less than 90%)
[20]
  K (Indian mallow) weedkilling efficacy grade: 5 (weed kill ratio 90% or more, (practically complete withering))
[21]
  L (redroot pigweed) weedkilling efficacy grade: 3 (weed kill ratio 40% or more, less than 70%)
[22]
  b (directly sown rice) effect on crop grade: 4 (weed kill ratio 70% or more, less than 90%)
[23]
  e (wheat) effect on crop grade: 0 (weed kill ratio 5% or less (practically no effect))
[24]
  J (common wind-grass) weedkilling efficacy grade: 5 (weed kill ratio 90% or more, (practically complete withering))
[25]
  D (crabgrass) weedkilling efficacy grade: 5 (weed kill ratio 90% or more, (practically complete withering))
[26]
  E (green foxtail) weedkilling efficacy grade: 5 (weed kill ratio 90% or more, (practically complete withering))
[27]
  M (fig-leafed goosefoot) weedkilling efficacy grade: 3 (weed kill ratio 40% or more, less than 70%)
[28]
  g (rapeseed) effect on crop grade: 4 (weed kill ratio 70% or more, less than 90%)
[29]
  B (bulrush) weedkilling efficacy grade: 5 (weed kill ratio 90% or more, (practically complete withering))
[30]
  K (Indian mallow) weedkilling efficacy grade: 0 (weed kill ratio 5% or less (practically no effect))
[31]
  G (wild oat) weedkilling efficacy grade: 4 (weed kill ratio 70% or more, less than 90%)
[32]
  H (black-grass) weedkilling efficacy grade: 5 (weed kill ratio 90% or more, (practically complete withering))
[33]
  O (catchweed) weedkilling efficacy grade: 4 (weed kill ratio 70% or more, less than 90%)
[34]
  F (barnyard grass) weedkilling efficacy grade: 4 (weed kill ratio 70% or more, less than 90%)
[35]
  d (soybean) effect on crop grade: 0 (weed kill ratio 5% or less (practically no effect))
[36]
  a (transplanted rice) effect on crop grade: 3 (weed kill ratio 40% or more, less than 70%)
[37]
  A (barnyard grass) weedkilling efficacy grade: 4 (weed kill ratio 70% or more, less than 90%)
[38]
  d (soybean) effect on crop grade: 3 (weed kill ratio 40% or more, less than 70%)
[39]
  H (black-grass) weedkilling efficacy grade: 5 (weed kill ratio 90% or more, (practically complete withering))
[40]
  I (Italian ryegrass) weedkilling efficacy grade: 5 (weed kill ratio 90% or more, (practically complete withering))
[41]
  O (catchweed) weedkilling efficacy grade: 4 (weed kill ratio 70% or more, less than 90%)
[42]
  G (wild oat) weedkilling efficacy grade: 5 (weed kill ratio 90% or more, (practically complete withering))
[43]
  c (corn) effect on crop grade: 0 (weed kill ratio 5% or less (practically no effect))
[44]
  P (birds-eye speedwell) weedkilling efficacy grade: 4 (weed kill ratio 70% or more, less than 90%)
[45]
  C (oval-leafed pondweed) weedkilling efficacy grade: 4 (weed kill ratio 70% or more, less than 90%)
